Tests used:
[1] = parameters: dose or concentration left out as unconfirmed; conditions: estradiol release, as its 3-acetate ester; cited from earlier work
[2] = Bulk drug in arterial tissue surrounding the implanted stent; assay type: in vivo, Yucatan pig
Experimental: Another sample of the coated stent was prepared for in vivo evaluation in a porcine coronary artery model using the Yucatan pig. Subjects were initially given 650 mg acetylsalicylic acid and 300 mg Plavix. Maintenance doses of 81 mg acetylsalicylic acid and 75 mg Plavix were administered. The target ACT (activated clotting time) for the procedure was about 250 seconds. Stent oversizing in relation to the artery was about 10-20%. The preparation of the sirolimus-coated stent was the same as described in Example 1 and used for the in vitro deployment into tubing, except that the device was sterilized using ETO prior to implantation into the animal.
The bulk concentration of drug was measured in the arterial tissue surrounding the implanted stent at 1, 3, 7, 14, and 28 days after implant, and provided a quantitative measure of the high efficiency of transfer of drug into the therapeutic site using devices and methods of the invention. The amount of drug that was detected in the arterial tissue was as follows: 1 day after implant, ˜6 μg; 3 days after implant, ˜16 μg; 7 days after implant, ˜30 μg; 14 days after implant, ˜30 μg; 28 days after implant, ˜13 μg. Peak tissue concentration of sirolimus of ˜30 μg at 14 days after implant was representative of approximately ⅙ of the total drug that had been loaded on the stent. Note that some drug likely metabolized or diffused out of the arterial tissue into other areas of the body.

[3] = system: bladder cancer recurrence; conditions: 40 mg/20 cc vs 20 mg/20 cc, dehydration, bladder emptying, alkalinization with sodium bicarbonate; cited from earlier work
[4] = acid urine; cited from earlier work

C[C@]12CC[C@@H]3c4ccc(O)cc4CC[C@H]3[C@@H]1CC[C@@H]2O [estradiol]
circulating plasma concentration maintained [1]: 300 pmol/L

CO[C@H]1C[C@@H]2CC[C@@H](C)[C@@](O)(O2)C(=O)C(=O)N2CCCC[C@H]2C(=O)O[C@H]([C@H](C)C[C@@H]2CC[C@@H](O)[C@H](OC)C2)CC(=O)[C@H](C)/C=C(\C)[C@@H](O)[C@@H](OC)C(=O)[C@H](C)C[C@H](C)/C=C/C=C/C=C/1C [sirolimus]
amount of drug detected in the arterial tissue ([2]; 1 day after implant): ~6 µg | amount of drug detected in the arterial tissue ([2]; 3 days after implant): ~16 µg | amount of drug detected in the arterial tissue ([2]; 7 days after implant): ~30 µg | amount of drug detected in the arterial tissue ([2]; 14 days after implant): ~30 µg | peak tissue level as fraction of the total drug loaded on the stent ([2]; 14 days after implant): approximately ⅙ | amount of drug detected in the arterial tissue ([2]; 28 days after implant): ~13 µg

CO[C@@]12[C@H](COC(N)=O)C3=C(C(=O)C(C)=C(N)C3=O)N1C[C@@H]1N[C@@H]12 [Mitomycin C]
recurrence with optimized schedule [3]: nearly cut in half | stability in urine [4]: inactivated by acid urine

Source: US9981071B2, “Drug delivery medical device” (Micell Technologies, Inc., priority 2008, dated 2018)
